{
  "source": "paper PMC9124243",
  "about": "(Cell chemical biology, 2021)",
  "key": {"[1]": {"molecular_target": "Mtb DnaK-DnaJ2-GrpE (Mycobacterium tuberculosis, UniProt P9WMJ9)", "sequence (P9WMJ9 whole entry)": "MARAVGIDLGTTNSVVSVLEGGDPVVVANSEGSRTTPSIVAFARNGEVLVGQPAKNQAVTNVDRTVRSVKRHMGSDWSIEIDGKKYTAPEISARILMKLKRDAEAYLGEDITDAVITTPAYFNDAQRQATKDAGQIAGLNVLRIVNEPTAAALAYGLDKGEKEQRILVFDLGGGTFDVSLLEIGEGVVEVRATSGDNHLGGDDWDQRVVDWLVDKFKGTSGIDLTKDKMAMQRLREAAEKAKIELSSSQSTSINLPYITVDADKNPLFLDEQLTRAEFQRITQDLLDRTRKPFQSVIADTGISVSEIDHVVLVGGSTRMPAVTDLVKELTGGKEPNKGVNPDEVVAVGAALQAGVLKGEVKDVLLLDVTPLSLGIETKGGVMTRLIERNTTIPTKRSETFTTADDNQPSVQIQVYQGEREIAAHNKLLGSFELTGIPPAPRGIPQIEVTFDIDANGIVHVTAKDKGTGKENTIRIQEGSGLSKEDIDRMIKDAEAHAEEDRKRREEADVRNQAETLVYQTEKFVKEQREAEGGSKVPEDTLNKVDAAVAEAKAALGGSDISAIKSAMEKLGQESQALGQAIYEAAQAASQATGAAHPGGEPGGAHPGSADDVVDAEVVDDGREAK", "test": "biochemical"}, "[2]": {"molecular_target": "Mtb DnaK^FL (Mycobacterium tuberculosis, UniProt P9WMJ9)", "sequence (P9WMJ9 whole entry)": "as above", "assay_type": "binding", "settings": "FP competition"}, "[3]": {"molecular_target": "mycobacterial DnaK and GrpE with DnaJ2 (Mycobacterium tuberculosis, UniProt P9WMJ9)", "sequence (P9WMJ9 whole entry)": "as above", "assay_type": "biochemical", "settings": "excess compound"}, "[4]": {"molecular_target": "human Hsc70 and DnaJA2 (Homo sapiens, UniProt P11142)", "sequence (P11142 whole entry)": "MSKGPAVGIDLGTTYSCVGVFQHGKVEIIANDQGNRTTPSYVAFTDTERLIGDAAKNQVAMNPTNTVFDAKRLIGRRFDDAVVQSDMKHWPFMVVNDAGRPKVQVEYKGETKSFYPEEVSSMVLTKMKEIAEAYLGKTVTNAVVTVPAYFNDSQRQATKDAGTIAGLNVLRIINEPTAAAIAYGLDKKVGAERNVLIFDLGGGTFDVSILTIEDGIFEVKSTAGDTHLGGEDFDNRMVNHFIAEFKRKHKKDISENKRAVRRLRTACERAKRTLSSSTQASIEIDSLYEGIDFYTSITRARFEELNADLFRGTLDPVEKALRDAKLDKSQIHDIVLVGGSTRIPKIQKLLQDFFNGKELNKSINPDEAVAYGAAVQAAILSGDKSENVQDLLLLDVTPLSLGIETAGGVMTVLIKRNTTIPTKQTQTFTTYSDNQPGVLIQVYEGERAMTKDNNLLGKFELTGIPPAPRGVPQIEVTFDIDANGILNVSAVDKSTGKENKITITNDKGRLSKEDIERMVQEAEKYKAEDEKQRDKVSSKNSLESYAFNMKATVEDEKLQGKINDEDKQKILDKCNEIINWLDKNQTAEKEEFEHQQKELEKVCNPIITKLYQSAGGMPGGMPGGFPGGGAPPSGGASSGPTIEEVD", "test": "Denatured luciferase refolding by human chaperones", "assay_type": "biochemical"}, "[5]": {"test_system": "M. smegmatis (Msm)", "test": "Mycobacterial growth inhibition assay", "assay_type": "cell-based, Mycobacterium smegmatis", "settings": "for effect on Msm growth: wild-type Msm"}, "[6]": {"molecular_target": "Mtb DnaK activation by DnaJ2 and GrpE (Mycobacterium tuberculosis, UniProt P9WMJ9)", "sequence (P9WMJ9 whole entry)": "as the sequence (P9WMJ9 whole entry) above", "assay_type": "biochemical", "settings": "for DnaJ2- and GrpE-mediated activation of DnaK: excess HCV inhibitor, DnaK 4 μM"}, "[7]": {"test_system": "luciferase", "test": "Luciferase counter-assay", "assay_type": "biochemical"}, "[8]": {"test_system": "Msm", "settings": "below the limit of detection; ref Fay et al., 2021; cited from earlier work"}, "[9]": {"molecular_target": "HCV protease (NS3/4A)", "settings": "ref Grillot et al., 2011; cited from earlier work"}, "[10]": {"molecular_target": "DnaK^SBD, residues 360-625 (Mycobacterium tuberculosis, UniProt P9WMJ9)", "sequence (P9WMJ9 360-625)": "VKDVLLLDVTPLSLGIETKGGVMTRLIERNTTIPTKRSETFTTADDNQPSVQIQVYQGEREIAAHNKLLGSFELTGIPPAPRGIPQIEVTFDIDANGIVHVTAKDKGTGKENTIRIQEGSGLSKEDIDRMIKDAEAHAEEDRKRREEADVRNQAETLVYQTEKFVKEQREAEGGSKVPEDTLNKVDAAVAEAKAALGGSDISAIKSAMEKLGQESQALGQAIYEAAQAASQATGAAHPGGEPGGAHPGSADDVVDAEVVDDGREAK", "assay_type": "binding", "settings": "FP competition"}, "[11]": {"test_system": "Msm", "assay_type": "cell-based, Mycobacterium smegmatis"}, "[12]": {"molecular_target": "Mtb DnaK (Mycobacterium tuberculosis, UniProt P9WMJ9)", "sequence (P9WMJ9 whole entry)": "as the sequence (P9WMJ9 whole entry) above", "assay_type": "biochemical", "settings": "excess compound, DnaK without cofactors"}, "[13]": {"molecular_target": "proteinase K (Parengyodontium album, UniProt P06873)", "sequence (P06873 106-384)": "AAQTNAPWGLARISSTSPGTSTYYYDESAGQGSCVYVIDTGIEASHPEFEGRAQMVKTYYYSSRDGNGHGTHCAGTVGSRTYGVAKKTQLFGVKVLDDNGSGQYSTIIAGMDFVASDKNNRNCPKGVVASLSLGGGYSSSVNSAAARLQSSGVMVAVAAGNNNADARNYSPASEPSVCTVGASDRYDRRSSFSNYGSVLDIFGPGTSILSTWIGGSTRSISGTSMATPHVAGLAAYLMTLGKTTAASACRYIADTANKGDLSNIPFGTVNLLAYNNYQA", "test": "Hemoglobin proteolysis control for proteinase K activity", "assay_type": "biochemical", "settings": "50 μM TP"}, "[14]": {"test_system": "Msm", "test": "MIC assays for antibiotic synergy with TP", "assay_type": "cell-based, Mycobacterium smegmatis", "settings": "for improvement in MIC50: with 100 μM TP added"}, "[15]": {"settings": "kinetic analysis of ATP hydrolysis by DnaK-DnaJ2-GrpE"}},
  "note": "Where two headings read alike, the source gives them in different places.",
  "data": [
    {"molecule": "4BB-Val-Val-Pro-Leu-OH [Compound 3]", "values": [
      {"measurement": "inhibition of DnaK-DnaJ2-GrpE ATPase activity in dose-response assay", "setting": "[1]", "result": "no activity"}
    ]},
    {"molecule": "4BB-Val-Val-Pro-Leu-OMe [Compound 6]", "values": [
      {"measurement": "inhibition of DnaK-DnaJ2-GrpE ATPase activity in dose-response assay", "setting": "[1]", "result": "no activity"}
    ]},
    {"molecule": "CC(C)(C)NC(=O)N[C@H](C(=O)N1C[C@H]2[C@@H]([C@H]1C(=O)NC(CC1CCC1)C(=O)C(N)=O)C2(C)C)C(C)(C)C", "note": "(some centres unmarked) [BC, boceprevir]", "values": [
      {"measurement": "competition with FL-NR for binding to DnaK", "setting": "[2]", "result": "no effect on binding of the probe"},
      {"measurement": "inhibition of DnaK-DnaJ2-GrpE ATPase activity in dose-response assay", "setting": "[1]; dose-response", "result": "inactive"},
      {"measurement": "effect on refolding reactions", "setting": "[3]", "result": "only a slight effect"},
      {"measurement": "inhibition of human chaperones", "setting": "[4]; excess compound", "result": "does not inhibit"}
    ]},
    {"molecule": "CNC(=O)[C@H]1O[C@@H](n2cnc3c(NCc4cccc(I)c4)nc(Cl)nc32)[C@H](O)[C@@H]1O", "note": "[MECA, 2Cl-IB-MECA]", "values": [
      {"measurement": "IC50", "setting": "[1]", "result": "~4500", "unit": "nM"},
      {"measurement": "competition with ATP", "setting": "[1]; [15]", "result": "no competition with ATP"},
      {"measurement": "effect on Msm growth", "setting": "[5]", "result": "only TP appears to cause growth inhibition of mycobacterial cells"},
      {"measurement": "DnaJ2-mediated activation of DnaK's ATPase activity", "setting": "[6]", "result": "hindered"},
      {"measurement": "activation of DnaK by increasing concentrations of GrpE", "setting": "[6]; excess MECA, sub-stoichiometric DnaJ2", "result": "nearly abrogated"},
      {"measurement": "activity against luciferase alone", "setting": "[7]", "result": "no activity"}
    ]},
    {"molecule": "CO[C@H]1/C=C/O[C@@]2(C)Oc3c(C)c(O)c4c(O)c(c(/C=N/N5CCN(C)CC5)c(O)c4c3C2=O)NC(=O)/C(C)=C\\C=C\\[C@H](C)[C@H](O)[C@@H](C)[C@@H](O)[C@@H](C)[C@H](OC(C)=O)[C@@H]1C", "note": "[RIF, rifampicin]", "values": [
      {"measurement": "FOR value of Msm ΔdnaJ2 cells", "setting": "[8]", "result": "< 10^−10"}
    ]},
    {"molecule": "CCC[C@H](NC(=O)[C@@H]1[C@H]2CCC[C@H]2CN1C(=O)[C@@H](NC(=O)[C@@H](NC(=O)c1cnccn1)C1CCCCC1)C(C)(C)C)C(=O)C(=O)NC1CC1", "note": "[TP, Telaprevir]", "values": [
      {"measurement": "increase of the KM of DnaK", "setting": "[1]; [15]", "result": "~ 2 fold"},
      {"measurement": "Ki", "setting": "[9]", "result": 44, "unit": "nM"},
      {"measurement": "displacement of FL-NR from DnaK^SBD", "setting": "[10]", "result": "displace FL-NR"},
      {"measurement": "lowering of the FOR of RIF", "setting": "[11]; 100 μM TP + 240 μM RIF, Msm", "result": "about 1 log10"},
      {"measurement": "FOR of Msm for RIF with TP added", "setting": "[11]; 240 μM RIF + 100 μM TP", "result": "~ 10^−8"},
      {"measurement": "concentration causing growth inhibition", "setting": "[5]", "result": "> 100", "unit": "µM"},
      {"measurement": "growth of Msm ΔdnaJ1", "setting": "[5]; 100 μM TP", "result": "growth defects"},
      {"measurement": "DnaJ2- and GrpE-mediated activation of DnaK", "setting": "[6]", "result": "significantly disrupted"},
      {"measurement": "activity against luciferase alone", "setting": "[7]", "result": "no activity"},
      {"measurement": "effect on DnaK ATPase activity", "setting": "[12]", "result": "slightly inhibits"},
      {"measurement": "refolding activity compared to DMSO alone", "setting": "[4]; 100 μM TP", "result": 35, "unit": "%"},
      {"measurement": "effect on cleavage by proteinase K", "setting": "[13]", "result": "did not affect cleavage by proteinase K"},
      {"measurement": "effect on activity of rifampicin", "setting": "[14]; 100 μM TP", "result": "does not affect the activity"}
    ]},
    {"molecule": "NC[C@H]1O[C@H](O[C@H]2[C@H](O)[C@@H](O[C@H]3O[C@H](CO)[C@@H](O)[C@H](N)[C@H]3O)[C@H](N)C[C@@H]2N)[C@H](O)[C@@H](O)[C@@H]1O", "note": "[kanamycin]", "values": [
      {"measurement": "improvement in MIC50", "setting": "[14]", "result": "~ 2 fold"}
    ]},
    {"molecule": "COc1ccc2c(O[C@@H]3C[C@H]4C(=O)N[C@]5(C(=O)NS(=O)(=O)C6CC6)C[C@H]5/C=C\\CCCCN(C)C(=O)[C@@H]4C3)cc(-c3nc(C(C)C)cs3)nc2c1C", "note": "[simeprevir]", "values": [
      {"measurement": "IC50 value relative to that of TP", "setting": "[1]; DnaK-DnaJ2-GrpE ATPase", "result": "~ 8 fold"},
      {"measurement": "inhibition of DnaK-DnaJ2-GrpE ATPase activity in dose-response assay", "setting": "[1]; dose-response", "result": "measurable inhibition"},
      {"measurement": "effect on Msm growth", "setting": "[5]", "result": "did not affect Msm growth"},
      {"measurement": "DnaJ2- and GrpE-mediated activation of DnaK", "setting": "[6]", "result": "significantly disrupted"}
    ]},
    {"molecule": "[H]/N=C(/N)N[C@H]1[C@H](O)[C@@H](O)[C@H](O[C@@H]2O[C@@H](C)[C@](O)(C=O)[C@H]2O[C@@H]2O[C@@H](CO)[C@H](O)[C@@H](O)[C@@H]2NC)[C@@H](N/C(N)=N\\[H])[C@@H]1O", "note": "[streptomycin]", "values": [
      {"measurement": "improvement in MIC50", "setting": "[14]", "result": "~4", "unit": "fold"}
    ]}
  ]
}
